# Test results as given in patent US11078213B2, “Thienopyrimidine compound, preparation method thereof, pharmaceutical composition and application thereof” (HONGYUN BIOTECH CO., LTD., priority 2016, dated 2021).
# pIC50: −log10 of the molar value.
# Columns and labels:
# [1] = molecular target: EML4-ALK-I1171T BaF3 cells (Homo sapiens, UniProt Q9UM73, I1171T); test: Growth inhibition of BaF3 cells stably transfected with ALK point mutation I1171T; details: read-out: Growth inhibitory activity IC50, EML4-ALK-I1171T
# Sequence of EML4-ALK-I1171T BaF3 cells (Q9UM73 1058-1620 I1171T limits assumed): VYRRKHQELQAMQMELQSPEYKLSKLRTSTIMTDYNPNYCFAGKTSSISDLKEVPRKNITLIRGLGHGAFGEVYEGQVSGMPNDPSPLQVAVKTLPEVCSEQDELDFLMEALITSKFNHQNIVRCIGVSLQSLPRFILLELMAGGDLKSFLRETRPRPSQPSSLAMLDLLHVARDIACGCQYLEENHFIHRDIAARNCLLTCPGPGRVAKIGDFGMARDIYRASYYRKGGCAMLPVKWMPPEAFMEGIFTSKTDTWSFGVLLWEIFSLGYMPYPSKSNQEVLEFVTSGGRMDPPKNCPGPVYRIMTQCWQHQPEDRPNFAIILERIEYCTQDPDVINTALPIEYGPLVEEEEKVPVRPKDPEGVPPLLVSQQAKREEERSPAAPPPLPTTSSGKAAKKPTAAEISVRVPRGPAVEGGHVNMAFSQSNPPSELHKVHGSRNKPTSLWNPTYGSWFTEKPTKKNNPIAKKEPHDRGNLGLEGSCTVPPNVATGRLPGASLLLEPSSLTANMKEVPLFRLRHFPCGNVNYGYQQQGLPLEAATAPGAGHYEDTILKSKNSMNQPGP
# Experimental: (§6) The cell plate with uniformly mixed compound was cultured in a cell culture incubator (37° C.; 5% CO2) for 48 h, then 20 μL of MTS reaction solution was added, uniformly mixed and incubated in the cell culture incubator (37° C.; 5% CO2) for 1-4 hr; OD values at 490 nm were measured by a microplate reader (VARIOSKAN FLASH, Thermo). Three parallels were set in each group of experiments, with 0.1% (a final concentration) DMSO as a negative control, and a medium without cells or compounds as a blank control.
# (§7) 4) IC50 calculation: The semi-inhibitory concentration of the compound acting on cell growth was calculated using GradPad Prism 5 software according to the measured cell growth inhibition rate.
# EML4-ALK-BaF3 = molecular target: T1, EML4-ALK-BaF3 (Homo sapiens, UniProt Q9UM73); test: Growth inhibition of BaF3 cells stably transfected with kinase EML4-ALK (MTS); assay type: cell-based; details: compound concentration 3.3 μM, read-out: cell growth inhibition rate, EML4-ALK
# T1 construct: EML4 (echinoderm microtubule associated protein like 4, Q9HC35) fusion partner; expressed in transfected cells; host or cells: BaF3; the other entry of the earlier key: EML4 (Q9HC35, Echinoderm microtubule-associated protein-like 4)
# T1 sequence (Q9UM73 1058-1620 limits assumed): as the sequence (Q9UM73 1058-1620 I1171T limits assumed) above, with T114I counted along it
# Experimental: (§1) The specific test method is given as follows:
# (§2) 2) Reagent: MTS reaction solution (containing 2 mg/mL of MTS [3-(4,5-dimethylthiazol-2-yl)-5-(3-carboxymethoxyphenyl)-2-(4-sulfophenyl)-2H-tetra zolium, inner Salt]; 100 µg/mL PES ([…])).
# NPM-ALK-BaF3 = molecular target: T2, NPM-ALK-BaF3 (Homo sapiens, UniProt Q9UM73); test: Growth inhibition of BaF3 cells stably transfected with kinase NPM-ALK (MTS); assay type: cell-based; details: compound concentration 3.3 μM, read-out: cell growth inhibition rate, NPM-ALK
# T2 construct: NPM (nuclear phosphoprotein / nucleophosmin, NPM1, P06748) fusion partner; expressed in transfected cells; host or cells: BaF3; the other entry of the earlier key: NPM1 (P06748, Nucleophosmin)
# T2 sequence (Q9UM73 with tags, fused parts or gaps): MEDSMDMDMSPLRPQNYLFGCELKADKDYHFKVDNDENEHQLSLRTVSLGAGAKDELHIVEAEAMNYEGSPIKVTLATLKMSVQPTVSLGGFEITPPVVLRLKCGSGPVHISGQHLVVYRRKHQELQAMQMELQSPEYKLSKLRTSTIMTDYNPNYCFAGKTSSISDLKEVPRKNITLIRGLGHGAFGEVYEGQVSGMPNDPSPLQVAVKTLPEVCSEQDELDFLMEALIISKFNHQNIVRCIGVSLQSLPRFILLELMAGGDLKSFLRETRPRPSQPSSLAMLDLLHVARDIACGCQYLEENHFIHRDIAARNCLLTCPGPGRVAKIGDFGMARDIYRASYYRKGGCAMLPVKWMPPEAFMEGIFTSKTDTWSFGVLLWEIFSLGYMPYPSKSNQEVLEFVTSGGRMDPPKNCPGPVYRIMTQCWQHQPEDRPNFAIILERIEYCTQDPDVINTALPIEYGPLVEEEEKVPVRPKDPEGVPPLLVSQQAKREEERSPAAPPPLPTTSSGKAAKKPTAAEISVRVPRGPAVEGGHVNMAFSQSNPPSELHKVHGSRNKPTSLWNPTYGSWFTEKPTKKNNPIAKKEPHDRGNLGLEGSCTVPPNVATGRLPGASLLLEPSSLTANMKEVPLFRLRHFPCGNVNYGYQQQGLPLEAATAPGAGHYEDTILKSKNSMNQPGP
# Experimental: as §1, §2
# wild-type BaF3 = test: Growth inhibition of wild-type BaF3 cells (broad-spectrum toxicity); assay type: cell-based; details: Mus musculus, read-out: Growth inhibitory activity IC50, BaF3
# Experimental: as §6, §7
# [2] = tested on: anaplastic large cell lymphoma Karpas-299; test: Growth inhibitory activity on tumor cells Karpas-299; assay type: cell-based
# Experimental: (§3) If the tumor cells tested were suspension cells, the assay was carried out in accordance with the method (1) above.
# (§4) If the tumor cells tested were adherent cells, cells were incubated 1000-10000 cells/well in a 96-well culture plate until adherent, and then compounds were added. Others were carried out in accordance with the method (1) above.
# [3] = molecular target: EML4-ALK-S1206Y BaF3 cells (Homo sapiens, UniProt Q9UM73, S1206Y); test: Growth inhibition of BaF3 cells stably transfected with ALK point mutation S1206Y; details: read-out: Growth inhibitory activity IC50, EML4-ALK-S1206Y
# Sequence of EML4-ALK-S1206Y BaF3 cells (Q9UM73 1058-1620 S1206Y limits assumed): as the sequence (Q9UM73 1058-1620 I1171T limits assumed) above, with T114I, S149Y counted along it
# Experimental: as §6, §7
# [4] = molecular target: EML4-ALK-G1269A BaF3 cells (Homo sapiens, UniProt Q9UM73, G1269A); test: Growth inhibition of BaF3 cells stably transfected with ALK point mutation G1269A; details: read-out: Growth inhibitory activity IC50, EML4-ALK-G1269A
# Sequence of EML4-ALK-G1269A BaF3 cells (Q9UM73 1058-1620 G1269A limits assumed): as the sequence (Q9UM73 1058-1620 I1171T limits assumed) above, with T114I, G212A counted along it
# Experimental: as §6, §7
# [5] = tested on: kinase ALK-positive lung cancer cell line H3122; test: Growth inhibitory activity on tumor cells H3122; assay type: cell-based
# Experimental: as §3, §4
# NCI-H3122 xenograft = test: Nude mouse xenograft model of non-small cell lung cancer H3122 cells; assay type: in vivo, BALB/c (nu/nu) nude mice; details: 18 consecutive days
# Experimental: (§5) In this test, BALB/c (nu/nu) nude mice were used, male and female in half, 4-6 weeks old, weighing about 18±2 g, and fed in SPF level environment, strictly sterile operation. The animals to be tested were adapted to the experimental environment 1 week in advance, free access to food and water, and maintained a 12-hour circadian rhythm.
# The NCI-H3122 cells used in the test were cultured with 10% fetal bovine serum in PRMI-1640 medium, and placed in a 37° C., 5% CO2 incubator environment.
# A subcutaneous transplantation model of tumor nude mice was established by using cell inoculation method: cells in logarithmic growth phase were collected by filtration, washed with PBS after centrifugation, and resuspended as a single cell suspension with PRMI-1640 medium, 5×10^6 cells/200 μL per nude mouse. The cell suspension was injected subcutaneously in the vicinity of right anterior axillary of a nude mouse using a 1 mL syringe (No. 4.5 needle). When the tumor of tumor-bearing mice grew to a measurable size, the tumor volume was measured daily. When the tumor volume reached about 150 mm^3, the mice were randomly divided into 4 groups, 5 mice each group, and administration was started on the day of grouping. […] The administration was conducted for 18 consecutive days. Animal weight and tumor size were measured every other day during the test. The state of the mice was recorded daily. After the last administration, the mice were anesthetized with 5% chloral hydrate and killed 6 hours. The tumors were taken, weighed and photographed for recording. Tumor Volume (TV) was calculated as: TV=½×a×b^2, where a, b represent long diameter and short diameter of tumor, respectively.
# [6] = molecular target: T3, EML4-ALK(G1202R)-Ba/F3 xenograft (Homo sapiens, UniProt Q9UM73, G1202R); test: Nude mouse xenograft model of EML4-ALK(G1202R)-Ba/F3; assay type: in vivo, BALB/c (nu/nu) nude mice; details: 10 consecutive days
# T3 construct: EML4 (Q9HC35) fusion partner; expressed in transfected cells; host or cells: Ba/F3; the other entry of the earlier key: EML4 (Q9HC35, Echinoderm microtubule-associated protein-like 4)
# T3 sequence (Q9UM73 1058-1620 G1202R limits assumed): as the sequence (Q9UM73 1058-1620 I1171T limits assumed) above, with T114I, G145R counted along it
# Experimental: as §5
# The EML4-ALK(G1202R)-Ba/F3 cells used in the test were cultured with 10% fetal bovine serum in PRMI-1640 medium, and placed in a 37° C., 5% CO2 incubator environment.
# A subcutaneous transplantation model of tumor nude mice was established by using cell inoculation method: cells in logarithmic growth phase were collected by filtration, washed with PBS after centrifugation, and resuspended as a single cell suspension with PRMI-1640 medium, 1×10^6 cells/200 μL per nude mouse. The cell suspension was injected subcutaneously in the vicinity of right anterior axillary of a nude mouse using a 1 mL syringe (No. 4.5 needle). When the tumor of tumor-bearing mice grew to a measurable size, the tumor volume was measured daily. When the tumor volume reached about 150 mm^3, the mice were randomly divided into 3 groups, 8 mice each group, and administration was started on the day of grouping. The administration component was IB-1 60 mg/kg (once/day), 40 mg/kg (twice/day, bid), orally administered for 10 consecutive days, and negative control group was administered an equal amount of solvent. Animal weight and tumor size were measured daily during the test. The state of the mice was recorded daily. After the last administration, the mice were anesthetized with 5% chloral hydrate and killed 6 hours. The tumors were taken, weighed and photographed for recording. Tumor Volume (TV) was calculated as: TV=½×a×b^2, where a, b represent long diameter and short diameter of tumor, respectively.
# [7] = molecular target: EML4-ALK-G1202R BaF3 cells (Homo sapiens, UniProt Q9UM73, G1202R); test: Growth inhibition of BaF3 cells stably transfected with ALK point mutation G1202R; details: read-out: Growth inhibitory activity IC50, EML4-ALK-G1202R
# Sequence of EML4-ALK-G1202R BaF3 cells (Q9UM73 1058-1620 G1202R limits assumed): as the sequence (Q9UM73 1058-1620 I1171T limits assumed) above, with T114I, G145R counted along it
# Experimental: as §6, §7
smiles,measurement,setting,value
COc1cc2c(cc1Nc1nc(Nc3ccccc3S(=O)(=O)C(C)C)c3sccc3n1)N(C(=O)CN(C)C)CC2 [IB-1],pIC50,[1],> 8.40
same,inhibition at 3.3 µM,EML4-ALK-BaF3,87.3%
same,inhibition at 3.3 µM,NPM-ALK-BaF3,96.7%
same,pIC50,wild-type BaF3,5.80
same,inhibitory activity against Karpas-299 (in words),[2],good inhibitory activity
same,pIC50,"[2]; Homo sapiens, Karpas-299 tumor cells",> 8.40
same,pIC50,[3],> 8.40
same,pIC50,[4],> 8.40
same,inhibitory activity against H3122 (in words),[5],good inhibitory activity
same,pIC50,"[5]; Homo sapiens, NCI-H3122, H3122 tumor cells",7.82
same,tumor growth,NCI-H3122 xenograft; 30 mg/kg (once/day) orally,significantly inhibited tumor growth
same,tumor growth,NCI-H3122 xenograft; 50 mg/kg (once/day) orally,significantly inhibited tumor growth
same,body weight during administration,NCI-H3122 xenograft; drug group,no significant changes in body weight
same,side effects,NCI-H3122 xenograft; drug group,no obvious side effects
same,tumor growth,"[6]; 40 mg/kg (twice/day, bid) orally",significantly inhibited tumor growth
same,tumor growth,[6]; 60 mg/kg (once/day) orally,significantly inhibited tumor growth
same,body weight during administration,[6]; drug group,no significant changes in body weight
same,side effects,[6]; drug group,no obvious side effects
same,pIC50,[7],8.00
